Measured values as given in ChEMBL document CHEMBL5291721, “A preclinical secondary pharmacology resource illuminates target-adverse drug reaction associations of marketed drugs” (Nat Commun, 2023).

Key:
Acetylcholinesterase = Acetylcholinesterase (Homo sapiens, UniProt P22303); format: functional
[1] = biological target: T1, Muscarinic acetylcholine receptor M2 (Homo sapiens, UniProt P08172)
T1 sequence (P08172 whole entry): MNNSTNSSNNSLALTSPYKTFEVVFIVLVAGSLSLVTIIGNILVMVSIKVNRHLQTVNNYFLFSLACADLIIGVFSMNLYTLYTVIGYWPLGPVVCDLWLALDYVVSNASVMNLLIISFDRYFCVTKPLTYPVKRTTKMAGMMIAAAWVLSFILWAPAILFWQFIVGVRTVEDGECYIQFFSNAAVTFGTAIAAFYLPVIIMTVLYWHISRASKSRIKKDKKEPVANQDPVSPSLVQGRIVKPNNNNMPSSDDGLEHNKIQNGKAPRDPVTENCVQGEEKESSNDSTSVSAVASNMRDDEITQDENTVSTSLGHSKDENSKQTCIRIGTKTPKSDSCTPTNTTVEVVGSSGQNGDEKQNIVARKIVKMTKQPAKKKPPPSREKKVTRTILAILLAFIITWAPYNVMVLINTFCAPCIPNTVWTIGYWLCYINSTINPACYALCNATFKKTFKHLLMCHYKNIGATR

D(1A) dopamine receptor = D(1A) dopamine receptor (Homo sapiens, UniProt P21728)
D(3) dopamine receptor = D(3) dopamine receptor (Homo sapiens, UniProt P35462)
Sequence of D(3) dopamine receptor (P35462 whole entry): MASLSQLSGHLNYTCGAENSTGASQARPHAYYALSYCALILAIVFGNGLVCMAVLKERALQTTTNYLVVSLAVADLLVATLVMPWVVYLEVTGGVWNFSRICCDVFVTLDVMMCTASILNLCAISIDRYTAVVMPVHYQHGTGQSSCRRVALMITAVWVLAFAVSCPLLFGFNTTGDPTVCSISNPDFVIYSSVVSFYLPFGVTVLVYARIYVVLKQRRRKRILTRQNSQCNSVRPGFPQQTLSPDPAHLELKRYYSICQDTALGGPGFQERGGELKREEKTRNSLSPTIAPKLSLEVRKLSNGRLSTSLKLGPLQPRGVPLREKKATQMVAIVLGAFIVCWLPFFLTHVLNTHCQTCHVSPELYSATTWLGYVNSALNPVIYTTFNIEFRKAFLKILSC

Prothrombin = Prothrombin (Homo sapiens, UniProt P00734); format: functional
Histamine H3 receptor = Histamine H3 receptor (Homo sapiens, UniProt Q9Y5N1)
[2] = biological target: T2, 5-hydroxytryptamine receptor 1A (Homo sapiens, UniProt P08908)
T2 sequence (P08908 whole entry): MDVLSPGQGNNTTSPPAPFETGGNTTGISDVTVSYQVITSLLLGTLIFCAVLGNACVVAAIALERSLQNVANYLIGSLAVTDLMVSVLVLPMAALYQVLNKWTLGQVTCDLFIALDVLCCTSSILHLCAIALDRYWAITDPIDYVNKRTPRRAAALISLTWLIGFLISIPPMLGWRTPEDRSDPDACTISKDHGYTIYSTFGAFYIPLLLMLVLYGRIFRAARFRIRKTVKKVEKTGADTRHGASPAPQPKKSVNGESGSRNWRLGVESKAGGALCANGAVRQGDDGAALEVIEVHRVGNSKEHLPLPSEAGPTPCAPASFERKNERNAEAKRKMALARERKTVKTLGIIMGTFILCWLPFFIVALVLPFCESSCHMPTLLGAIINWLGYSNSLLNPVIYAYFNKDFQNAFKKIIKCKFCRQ

[3] = biological target: 5-hydroxytryptamine receptor 2B (Homo sapiens, UniProt P41595); format: functional, cell-based
Sequence of 5-hydroxytryptamine receptor 2B (P41595 whole entry): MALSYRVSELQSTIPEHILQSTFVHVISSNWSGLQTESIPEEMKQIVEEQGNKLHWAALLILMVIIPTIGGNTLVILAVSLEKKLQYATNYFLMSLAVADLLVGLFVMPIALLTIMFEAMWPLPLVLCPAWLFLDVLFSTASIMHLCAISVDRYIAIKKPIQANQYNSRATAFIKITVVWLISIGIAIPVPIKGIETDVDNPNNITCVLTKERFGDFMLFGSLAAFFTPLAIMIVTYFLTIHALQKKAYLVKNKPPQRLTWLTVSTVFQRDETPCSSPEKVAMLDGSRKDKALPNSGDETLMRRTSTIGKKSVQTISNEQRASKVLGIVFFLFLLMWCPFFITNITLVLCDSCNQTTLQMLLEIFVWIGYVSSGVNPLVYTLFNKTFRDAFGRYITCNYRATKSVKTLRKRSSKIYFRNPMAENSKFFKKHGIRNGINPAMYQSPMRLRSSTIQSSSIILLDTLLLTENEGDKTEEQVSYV

[4] = biological target: Voltage-gated inwardly rectifying potassium channel KCNH2 (Homo sapiens, UniProt Q12809); format: functional
Sequence of Voltage-gated inwardly rectifying potassium channel KCNH2 (Q12809 whole entry): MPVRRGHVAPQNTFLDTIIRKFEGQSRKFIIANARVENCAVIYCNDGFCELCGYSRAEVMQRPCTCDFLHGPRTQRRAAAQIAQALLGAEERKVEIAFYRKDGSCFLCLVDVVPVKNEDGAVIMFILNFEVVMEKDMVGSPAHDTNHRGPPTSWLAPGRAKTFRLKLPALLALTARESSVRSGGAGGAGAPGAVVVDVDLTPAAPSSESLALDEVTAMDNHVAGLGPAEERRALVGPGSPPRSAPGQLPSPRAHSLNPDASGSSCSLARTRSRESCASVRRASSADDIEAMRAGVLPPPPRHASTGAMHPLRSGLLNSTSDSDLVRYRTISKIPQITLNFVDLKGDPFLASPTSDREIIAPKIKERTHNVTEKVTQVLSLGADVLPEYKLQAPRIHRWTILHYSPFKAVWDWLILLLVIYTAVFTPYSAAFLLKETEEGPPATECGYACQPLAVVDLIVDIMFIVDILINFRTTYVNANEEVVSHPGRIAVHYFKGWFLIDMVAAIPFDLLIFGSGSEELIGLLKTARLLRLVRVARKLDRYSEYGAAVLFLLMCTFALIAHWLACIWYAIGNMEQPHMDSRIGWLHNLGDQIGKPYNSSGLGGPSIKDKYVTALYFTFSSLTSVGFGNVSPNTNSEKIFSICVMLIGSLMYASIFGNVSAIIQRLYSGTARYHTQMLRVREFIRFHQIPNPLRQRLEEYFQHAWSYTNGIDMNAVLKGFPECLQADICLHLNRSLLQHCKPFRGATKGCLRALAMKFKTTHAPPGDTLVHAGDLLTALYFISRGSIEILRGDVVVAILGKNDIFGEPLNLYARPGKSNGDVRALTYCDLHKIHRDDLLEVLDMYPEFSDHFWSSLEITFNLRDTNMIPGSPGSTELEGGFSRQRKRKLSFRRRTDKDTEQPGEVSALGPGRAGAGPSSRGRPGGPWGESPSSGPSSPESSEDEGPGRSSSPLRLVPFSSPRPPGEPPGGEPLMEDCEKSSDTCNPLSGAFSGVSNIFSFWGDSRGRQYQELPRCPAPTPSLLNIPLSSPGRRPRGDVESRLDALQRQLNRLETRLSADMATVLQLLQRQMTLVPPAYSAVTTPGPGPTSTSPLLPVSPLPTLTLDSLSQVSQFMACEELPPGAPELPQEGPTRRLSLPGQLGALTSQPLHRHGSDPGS

[5] = biological target: T3, Amine oxidase [flavin-containing] A (Homo sapiens, UniProt P21397); format: functional
T3 sequence (P21397 whole entry): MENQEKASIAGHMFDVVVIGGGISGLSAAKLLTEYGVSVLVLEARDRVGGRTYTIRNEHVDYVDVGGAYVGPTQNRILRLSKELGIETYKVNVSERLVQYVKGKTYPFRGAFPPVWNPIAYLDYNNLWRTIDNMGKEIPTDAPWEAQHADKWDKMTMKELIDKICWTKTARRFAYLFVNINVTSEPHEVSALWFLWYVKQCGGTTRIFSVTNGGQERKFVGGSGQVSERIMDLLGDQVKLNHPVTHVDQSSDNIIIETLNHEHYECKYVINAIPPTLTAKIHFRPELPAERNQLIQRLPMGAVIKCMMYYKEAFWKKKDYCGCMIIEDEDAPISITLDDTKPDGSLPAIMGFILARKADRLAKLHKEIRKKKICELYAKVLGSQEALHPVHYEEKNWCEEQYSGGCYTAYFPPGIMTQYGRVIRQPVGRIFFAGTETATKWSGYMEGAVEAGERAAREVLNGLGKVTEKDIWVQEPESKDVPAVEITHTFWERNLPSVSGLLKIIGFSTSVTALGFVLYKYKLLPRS

Mu-type opioid receptor = Mu-type opioid receptor (Homo sapiens, UniProt P35372)
Sequence of Mu-type opioid receptor (P35372 whole entry): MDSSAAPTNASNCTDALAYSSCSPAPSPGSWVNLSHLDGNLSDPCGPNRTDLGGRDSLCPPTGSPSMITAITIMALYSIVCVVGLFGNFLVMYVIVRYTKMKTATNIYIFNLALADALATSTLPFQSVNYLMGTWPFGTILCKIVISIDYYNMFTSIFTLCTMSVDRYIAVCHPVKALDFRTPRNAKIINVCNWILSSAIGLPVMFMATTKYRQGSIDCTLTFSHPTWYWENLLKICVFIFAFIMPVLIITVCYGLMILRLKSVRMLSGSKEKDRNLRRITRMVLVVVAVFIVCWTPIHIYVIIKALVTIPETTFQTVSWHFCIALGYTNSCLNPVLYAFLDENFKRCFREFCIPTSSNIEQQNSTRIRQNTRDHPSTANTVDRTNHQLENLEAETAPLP

[6] = biological target: cGMP-inhibited 3',5'-cyclic phosphodiesterase 3A (Homo sapiens, UniProt Q14432); format: functional
Sequence of cGMP-inhibited 3',5'-cyclic phosphodiesterase 3A (Q14432 whole entry): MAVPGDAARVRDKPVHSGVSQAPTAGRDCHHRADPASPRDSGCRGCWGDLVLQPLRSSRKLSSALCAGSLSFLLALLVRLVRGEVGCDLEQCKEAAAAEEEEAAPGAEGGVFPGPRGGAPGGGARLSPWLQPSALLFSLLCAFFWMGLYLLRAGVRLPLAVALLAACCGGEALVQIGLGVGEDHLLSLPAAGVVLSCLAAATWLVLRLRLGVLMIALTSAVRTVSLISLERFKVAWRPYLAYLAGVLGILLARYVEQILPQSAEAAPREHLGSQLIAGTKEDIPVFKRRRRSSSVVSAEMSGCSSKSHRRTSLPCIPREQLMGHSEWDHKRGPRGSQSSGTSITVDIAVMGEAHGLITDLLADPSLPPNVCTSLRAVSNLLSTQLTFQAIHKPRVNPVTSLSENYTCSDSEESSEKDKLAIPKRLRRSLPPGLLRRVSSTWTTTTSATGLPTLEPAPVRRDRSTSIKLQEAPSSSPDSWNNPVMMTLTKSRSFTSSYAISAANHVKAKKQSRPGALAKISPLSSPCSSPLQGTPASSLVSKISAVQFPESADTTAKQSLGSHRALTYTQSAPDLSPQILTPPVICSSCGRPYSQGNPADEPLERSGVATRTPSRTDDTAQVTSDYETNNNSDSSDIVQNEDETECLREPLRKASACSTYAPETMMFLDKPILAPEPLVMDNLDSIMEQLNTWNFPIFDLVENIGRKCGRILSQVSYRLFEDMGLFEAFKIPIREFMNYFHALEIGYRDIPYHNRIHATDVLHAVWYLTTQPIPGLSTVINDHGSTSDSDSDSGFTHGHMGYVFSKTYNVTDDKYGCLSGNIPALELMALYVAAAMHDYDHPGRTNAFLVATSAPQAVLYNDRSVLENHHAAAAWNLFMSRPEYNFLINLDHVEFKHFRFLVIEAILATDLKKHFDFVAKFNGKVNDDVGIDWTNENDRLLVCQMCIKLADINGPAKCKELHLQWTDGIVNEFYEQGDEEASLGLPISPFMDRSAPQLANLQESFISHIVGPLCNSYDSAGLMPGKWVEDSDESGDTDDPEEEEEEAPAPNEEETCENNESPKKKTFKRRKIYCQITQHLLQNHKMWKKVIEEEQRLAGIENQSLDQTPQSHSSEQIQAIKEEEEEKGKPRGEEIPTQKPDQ

[7] = biological target: T4, Prostaglandin G/H synthase 1 (Homo sapiens, UniProt P23219); format: functional
T4 sequence (P23219 whole entry): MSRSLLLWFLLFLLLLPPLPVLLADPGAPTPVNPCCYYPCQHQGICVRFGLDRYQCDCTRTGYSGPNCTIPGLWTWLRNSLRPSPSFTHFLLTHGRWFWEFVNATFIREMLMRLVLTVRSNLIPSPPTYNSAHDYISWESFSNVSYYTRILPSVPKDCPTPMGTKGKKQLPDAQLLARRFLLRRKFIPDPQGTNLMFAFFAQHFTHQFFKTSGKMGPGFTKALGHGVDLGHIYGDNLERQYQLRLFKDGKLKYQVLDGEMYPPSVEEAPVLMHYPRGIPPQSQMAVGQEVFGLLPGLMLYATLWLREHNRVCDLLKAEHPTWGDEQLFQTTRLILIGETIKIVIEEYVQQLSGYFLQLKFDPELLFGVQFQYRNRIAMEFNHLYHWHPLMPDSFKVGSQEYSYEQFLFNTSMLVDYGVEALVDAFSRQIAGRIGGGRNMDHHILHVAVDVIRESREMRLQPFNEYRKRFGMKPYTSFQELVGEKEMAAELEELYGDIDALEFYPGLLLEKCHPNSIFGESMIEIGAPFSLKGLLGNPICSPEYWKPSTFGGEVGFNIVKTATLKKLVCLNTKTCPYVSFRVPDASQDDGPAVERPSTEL

[8] = biological target: T4, Prostaglandin G/H synthase 1; format: functional; remark: listed apart in the source
[9] = biological target: Sodium-dependent noradrenaline transporter (Homo sapiens, UniProt P23975)
[10] = biological target: Sodium-dependent dopamine transporter (Homo sapiens, UniProt Q01959)
Sequence of Sodium-dependent dopamine transporter (Q01959 whole entry): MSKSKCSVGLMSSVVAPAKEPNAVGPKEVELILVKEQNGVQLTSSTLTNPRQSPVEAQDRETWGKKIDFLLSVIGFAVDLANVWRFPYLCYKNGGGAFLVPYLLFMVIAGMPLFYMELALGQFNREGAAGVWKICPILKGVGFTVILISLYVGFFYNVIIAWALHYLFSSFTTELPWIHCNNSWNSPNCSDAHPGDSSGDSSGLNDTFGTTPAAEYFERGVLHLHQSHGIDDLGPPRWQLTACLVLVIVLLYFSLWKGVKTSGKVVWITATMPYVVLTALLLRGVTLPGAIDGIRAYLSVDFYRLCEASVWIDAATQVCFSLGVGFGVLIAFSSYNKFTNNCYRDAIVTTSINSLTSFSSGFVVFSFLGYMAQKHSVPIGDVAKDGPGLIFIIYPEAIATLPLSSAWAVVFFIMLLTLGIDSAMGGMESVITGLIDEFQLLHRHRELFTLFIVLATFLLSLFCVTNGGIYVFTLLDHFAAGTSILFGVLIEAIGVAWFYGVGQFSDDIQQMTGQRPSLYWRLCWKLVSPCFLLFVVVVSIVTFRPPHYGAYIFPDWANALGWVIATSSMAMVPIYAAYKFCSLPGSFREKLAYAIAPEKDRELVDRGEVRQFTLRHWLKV

Thromboxane A2 receptor [11] = biological target: T5, Thromboxane A2 receptor (Homo sapiens, UniProt P21731); format: functional, cell-based
T5 sequence (P21731 whole entry): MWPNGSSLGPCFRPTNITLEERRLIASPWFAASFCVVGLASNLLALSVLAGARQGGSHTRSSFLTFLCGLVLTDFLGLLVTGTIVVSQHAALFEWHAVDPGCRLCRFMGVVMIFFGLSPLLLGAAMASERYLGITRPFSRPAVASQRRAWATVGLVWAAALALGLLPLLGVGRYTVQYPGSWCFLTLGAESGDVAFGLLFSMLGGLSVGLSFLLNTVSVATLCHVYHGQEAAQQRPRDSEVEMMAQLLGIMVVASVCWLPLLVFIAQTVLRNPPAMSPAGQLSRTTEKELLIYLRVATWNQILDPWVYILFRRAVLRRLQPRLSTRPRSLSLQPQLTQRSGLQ

Thromboxane A2 receptor [12] = biological target: T5, Thromboxane A2 receptor; format: functional, cell-based; remark: listed apart in the source
Note: assay procedure not described here.

SMILES	AC50 (Acetylcholinesterase)	AC50 [1]	AC50 (D(1A) dopamine receptor)	AC50 (D(3) dopamine receptor)	AC50 (Prothrombin)	AC50 (Histamine H3 receptor)	AC50 [2]	AC50 [3]	AC50 [4]	AC50 [5]	AC50 (Mu-type opioid receptor)	AC50 [6]	AC50 [7]	AC50 [8]	AC50 [9]	AC50 [10]	AC50 (Thromboxane A2 receptor [11])	AC50 (Thromboxane A2 receptor [12])
CN(C)[C@@H]1C(O)=C(C(N)=O)C(=O)[C@@]2(O)C(O)=C3C(=O)c4c(O)ccc(Cl)c4[C@@](C)(O)[C@H]3C[C@@H]12 [CHLORTETRACYCLINE]	> 30 µM	> 30 µM	> 30 µM	> 30 µM	> 30 µM	> 30 µM	> 30 µM	> 30 µM	> 30 µM	> 30 µM	> 30 µM	> 30 µM	> 30 µM	> 30 µM	> 30 µM	> 30 µM	> 30 µM	> 30 µM
O=C1/C(=C2\Nc3ccc(S(=O)(=O)O)cc3C2=O)Nc2ccc(S(=O)(=O)O)cc21 [INDIGOTINDISULFONATE]	> 30 µM	> 30 µM	> 30 µM	> 30 µM	2.83 µM	> 30 µM	> 30 µM	> 30 µM	> 30 µM	> 30 µM	> 30 µM	> 30 µM	> 30 µM	21.5 µM	> 30 µM	> 30 µM	> 30 µM	> 30 µM
CC(=O)O[C@]1(C(C)=O)CC[C@H]2[C@@H]3C=C(C)C4=CC(=O)CC[C@@H]4[C@H]3CC[C@@]21C [NOMEGESTROL ACETATE]	> 30 µM	> 30 µM	> 30 µM	> 30 µM	> 30 µM	> 30 µM	> 30 µM	> 30 µM	> 30 µM	> 30 µM	> 30 µM	> 30 µM	> 30 µM	> 30 µM	> 30 µM	> 30 µM	> 30 µM	> 10 µM
FC(F)(F)c1ccc(CNc2ccc(Cc3c[nH]c4ncc(Cl)cc34)cn2)cn1 [PEXIDARTINIB]	> 30 µM	0.496 µM	20.2 µM	10.2 µM	> 30 µM	> 30 µM	0.627 µM	> 30 µM	8.6 µM	> 30 µM	13.4 µM	> 30 µM	> 30 µM	> 30 µM	3.96 µM	9.3 µM	> 30 µM	8.61 µM
CN1CCC(=C2c3ccccc3Sc3ccccc32)CC1 [PIMETHIXENE]	> 30 µM	0.0071 µM	0.0552 µM	0.0497 µM	> 30 µM	> 30 µM	0.0145 µM	> 30 µM	3.9 µM	> 30 µM	8.56 µM	> 30 µM	> 30 µM	> 30 µM	0.142 µM	11.2 µM	> 30 µM	14 µM
CN(CC1(C)CCCO1)S(=O)(=O)c1ccc(Cl)c(S(N)(=O)=O)c1 (stereo not drawn) [MEFRUSIDE]	> 30 µM	> 30 µM	> 30 µM	> 30 µM	> 30 µM	> 30 µM	> 30 µM	> 30 µM	> 30 µM	> 30 µM	> 30 µM	> 30 µM	> 30 µM	> 30 µM	> 30 µM	> 30 µM	> 30 µM	> 30 µM
CNC(=O)Oc1cccc2ccccc12 [CARBARIL]	> 30 µM	> 30 µM	> 30 µM	> 30 µM	> 30 µM	> 30 µM	> 30 µM	> 30 µM	> 30 µM	> 30 µM	> 30 µM	> 30 µM	4.19 µM	3.71 µM	> 30 µM	> 30 µM	> 30 µM	> 30 µM
C[C@]1(Cn2ccnn2)[C@H](C(=O)O)N2C(=O)C[C@H]2S1(=O)=O [TAZOBACTAM]	> 30 µM	> 30 µM	> 30 µM	> 30 µM	> 30 µM	> 30 µM	> 30 µM	> 30 µM	> 30 µM	> 30 µM	> 30 µM	> 30 µM	> 30 µM	> 30 µM	> 30 µM	> 30 µM	> 30 µM	> 30 µM
CC[C@H]1OC(=O)[C@H](C)C(=O)[C@H](C)[C@@H](O[C@@H]2O[C@H](C)C[C@H](N(C)C)[C@H]2O)[C@](C)(OC)C[C@@H](C)C(=O)[C@H](C)[C@H]2N(CCCCn3cnc(-c4cccnc4)c3)C(=O)O[C@]12C [TELITHROMYCIN]	> 30 µM	> 30 µM	> 30 µM	> 30 µM	> 30 µM	> 30 µM	> 30 µM	> 30 µM	> 30 µM	> 30 µM	> 30 µM	> 30 µM	20.6 µM	> 30 µM	> 30 µM	> 30 µM	> 30 µM	> 30 µM
C#C[C@]1(O)CC[C@H]2[C@@H]3CCC4=CC(=O)CC[C@@H]4[C@H]3C(=C)C[C@@]21CC [ETONOGESTREL]	> 30 µM	> 30 µM	> 30 µM	> 30 µM	> 30 µM	> 30 µM	> 30 µM	> 30 µM	> 30 µM	> 30 µM	10.5 µM	> 30 µM	> 30 µM	> 30 µM	> 30 µM	> 30 µM	> 30 µM	> 30 µM
C[C@H]1O[C@@H](n2cc(F)c(=O)[nH]c2=O)[C@H](O)[C@@H]1O [DOXIFLURIDINE]	> 30 µM	> 30 µM	> 30 µM	> 30 µM	> 30 µM	> 30 µM	> 30 µM	> 30 µM	> 30 µM	> 30 µM	> 30 µM	> 30 µM	> 30 µM	> 30 µM	> 30 µM	> 30 µM	> 30 µM	> 30 µM
